This is an account of results in patent US20260250257A1, “ANTIBACTERIAL AND SYNERGISTIC ACTIVE COMPOUND AND USE THEREOF” (EAST CHINA UNIVERSITY OF SCIENCE AND TECHNOLOGY, priority 2023, published 2026).

Common to all, as to type: cell-based
Test [1] has as its system ATCC13883 strain (Klebsiella pneumoniae). Briefly: Checkerboard antibacterial synergistic activity test with polymyxin E (FIC). To be noted: combined with polymyxin E. Also noted: key: FIC≤0.5 synergy; 0.5–1 additive; 1–2 indifferent; ≥2 antagonism. The method, boiled down:
(§1)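 FIC values come from a microdilution checkerboard crossing polymyxin E against the test compound in MH medium, with uninoculated blanks included. Incubation lasts 16 h at 37° C. Scoring: synergy at FIC ≤0.5, additivity between 0.5 and 1, indifference between 1 and 2, antagonism at 2 or above.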

The test system of test [2] is ATCC19606 strain (Acinetobacter baumannii). The test is described as above. To be noted: combined with polymyxin E. More on the design: key: FIC≤0.5 synergy; 0.5–1 additive; 1–2 indifferent; ≥2 antagonism. The essentials:
as §1

For test [3], the system named is ATCC9027 strain (Pseudomonas aeruginosa). Described as above. More on the design: key: FIC≤0.5 synergy; 0.5–1 additive; 1–2 indifferent; ≥2 antagonism. As to conditions: combined with polymyxin E. The method, boiled down: as §1
Test [4] deals with ATCC25922 strain (Escherichia coli). The description is as above. Also noted: key: FIC≤0.5 synergy; 0.5–1 additive; 1–2 indifferent; ≥2 antagonism. To be noted: combined with polymyxin E. The essentials: as §1
Test [5] deals with ATCC13883 strain (Klebsiella pneumoniae). Briefly: Broth microdilution, antibacterial activity of the compound used alone. To be noted: for MIC: read-out: Antibacterial activity of the compound of Formula I, ATCC13883. The source says: (§2) The broth microdilution method was used to test the antibacterial effects of the compounds of the present invention against various Gram-negative bacterial strains when used alone.
A general note: In broth dilution the organism is exposed to a series of concentrations in liquid medium.

The test system of test [6] is ATCC19606 strain (Acinetobacter baumannii). The description is as above. As to conditions: for MIC: read-out: Antibacterial activity of the compound of Formula I, ATCC19606.
Description: as §2

Test [7] concerns ATCC9027 strain (Pseudomonas aeruginosa). The description is as above. As to conditions: for MIC: read-out: Antibacterial activity of the compound of Formula I, ATCC9027.
Description: as §2

In test [8] the test system is ATCC25922 strain (Escherichia coli). The test is described as above. To be noted: for MIC: read-out: Antibacterial activity of the compound of Formula I, ATCC25922.
Description: as §2

Each structure is given as a SMILES string. Values after ≈ are worked out from the molar mass of the structure shown.

`N#Cc1cc(Oc2ccccc2I)cc(-c2coc(N=C3NCCCN3)n2)c1` [Compound I-157]: in test [1], the “Synergistic activity (FIC value) ATCC13883” value was determined as 0.09. In test [2], the “Synergistic activity (FIC value) ATCC19606” value is on record as 0.31. Further, the “Synergistic activity (FIC value) ATCC9027” value in test [3] is 0.06. Besides, the “Synergistic activity (FIC value) ATCC25922” value in test [4] worked out at 0.14. In test [5], the “Antibacterial activity of the compound of Formula I, ATCC13883” value (“Antibacterial activity … ATCC13883” for short) was found to be 256 µg/mL. The “Antibacterial activity of the compound of Formula I, ATCC19606” value (“Antibacterial activity … ATCC19606” for short) in test [6] is 256 µg/mL. Moreover, the “Antibacterial activity of the compound of Formula I, ATCC9027” value (“Antibacterial activity … ATCC9027” for short) in test [7] is 256 µg/mL. For the same compound, the “Antibacterial activity of the compound of Formula I, ATCC25922” value (“Antibacterial activity … ATCC25922” below) in test [8] is 256 µg/mL.
`CNC(=O)c1ccc(-c2ccncn2)c(-c2csc(N=C3NCCCN3)n2)c1` [Compound I-138]: the “Synergistic activity (FIC value) ATCC13883” value in test [1] stood at 1.25. Moreover, the “Synergistic activity (FIC value) ATCC19606” value in test [2] was 1.25. In addition, in test [3], the “Synergistic activity (FIC value) ATCC9027” value is recorded as 1.25. Moreover, the “Synergistic activity (FIC value) ATCC25922” value in test [4] turned out to be 1.25. Besides, the “Antibacterial activity … ATCC13883” value in test [5] stood at 256 µg/mL. Also, the “Antibacterial activity … ATCC19606” value in test [6] was 256 µg/mL. In addition, the “Antibacterial activity … ATCC9027” value in test [7] was 256 µg/mL. Further, the “Antibacterial activity … ATCC25922” value in test [8] stood at 256 µg/mL.
For `COc1ccc(Oc2cccc(-c3csc(N=C4NCCCN4)n3)c2)c(C)c1` [Compound I-154], the “Synergistic activity (FIC value) ATCC13883” value in test [1] was determined as 0.19. The “Synergistic activity (FIC value) ATCC19606” value in test [2] is on record as 0.38. In test [3], the “Synergistic activity (FIC value) ATCC9027” value amounted to 0.04. In test [4], the “Synergistic activity (FIC value) ATCC25922” value was 0.04. The “Antibacterial activity … ATCC13883” value in test [5] was found to be 256 µg/mL. Also, the “Antibacterial activity … ATCC19606” value in test [6] was 256 µg/mL. Moreover, the “Antibacterial activity … ATCC9027” value in test [7] was determined as 256 µg/mL. Besides, the “Antibacterial activity … ATCC25922” value in test [8] worked out at 256 µg/mL.
As to `NC(N)=Nc1nc(-c2cccc3c2C(F)(F)c2cc(Br)ccc2-3)cs1` [Compound I-115], the “Synergistic activity (FIC value) ATCC13883” value in test [1] is listed as 1.25. Also, the “Synergistic activity (FIC value) ATCC19606” value in test [2] came to 1.25. In addition, the “Synergistic activity (FIC value) ATCC9027” value in test [3] is 1.25. For the same compound, in test [4], the “Synergistic activity (FIC value) ATCC25922” value was 1.25. In addition, the MIC in test [5], in test [6], in test [7] and in test [8] was 256 µg/mL (≈ 608 µM) each time.
In the case of `CSc1cc2cc(C)ccn2c1-c1coc(N=C2NCCCN2)n1` [Compound I-192], the “Synergistic activity (FIC value) ATCC13883” value in test [1] was 0.38. In addition, the “Synergistic activity (FIC value) ATCC19606” value in test [2] came to 0.5. In addition, in test [3], the “Synergistic activity (FIC value) ATCC9027” value came to 0.63. Moreover, the “Synergistic activity (FIC value) ATCC25922” value in test [4] worked out at 0.38. In addition, the “Antibacterial activity … ATCC13883” value in test [5] worked out at 256 µg/mL. Moreover, the “Antibacterial activity … ATCC19606” value in test [6] was found to be 256 µg/mL. The “Antibacterial activity … ATCC9027” value in test [7] worked out at 256 µg/mL. The “Antibacterial activity … ATCC25922” value in test [8] turned out to be 256 µg/mL.
Consider `Ic1ccc(-c2csc(N=C3NCCCN3)n2)cc1` [Compound I-181], for which the “Synergistic activity (FIC value) ATCC13883” value in test [1] is reported as 0.19. Moreover, the “Synergistic activity (FIC value) ATCC19606” value in test [2] is 0.13. Also, the “Synergistic activity (FIC value) ATCC9027” value in test [3] turned out to be 1.25. For the same compound, in test [4], the “Synergistic activity (FIC value) ATCC25922” value is reported as 0.52. In addition, the “Antibacterial activity … ATCC13883” value in test [5] amounted to 256 µg/mL. In addition, the “Antibacterial activity … ATCC19606” value in test [6] came to 256 µg/mL. Also, the “Antibacterial activity … ATCC9027” value in test [7] is 256 µg/mL. Moreover, the “Antibacterial activity … ATCC25922” value in test [8] amounted to 256 µg/mL.
As for `Cc1ccc(Oc2ccccc2-c2csc(NC3=NCCCN3)n2)c(C)c1` [Compound I-143], the “Synergistic activity (FIC value) ATCC13883” value in test [1] is 0.19. The “Synergistic activity (FIC value) ATCC19606” value in test [2] worked out at 0.38. The “Synergistic activity (FIC value) ATCC9027” value in test [3] stood at 0.04. Also, the “Synergistic activity (FIC value) ATCC25922” value in test [4] was 0.04. Moreover, the MIC in test [5], in test [6], in test [7] and in test [8] was 256 µg/mL (≈ 676 µM) in each case.
